Test results as given in patent publication US20190292605A1, “Biomarkers of Response to Cyclin D-CDK4/6 Targeted Therapies in Cancer” (The Regents of the University of California, priority 2014, published 2019).
Where two headings read alike, the source gives them in different places.

Legend:
colon cancer = conditions: patients; cited from earlier work
[1] = test system: human melanoma cell lines; test: response to palbociclib treatment in 48 melanoma cell lines; assay type: cell-based
From the text: Melanoma, a malignancy originating in pigment-producing melanocytes, is generally resistant to conventional treatments such as radiotherapy or chemotherapy. Molecular targeted therapeutics against BRAF and MEK have shown marked efficacy for patients with metastatic melanoma. However these targeted therapies have a limited duration of response. […] Our main goal in this study was to evaluate the therapeutic potential of palbociclib in a large panel of human melanoma cell lines to identify potential biomarkers of sensitivity and resistance. Material and Methods: We evaluated the response palbociclib treatment in 48 melanoma cell lines. A comprehensive biomarker screen was performed using mutation and gene expression (Agilent) data. The mechanism of action of the drug, phospho-Rb and senescence, was investigated by western blot (WB) analysis. Effects on the cell cycle and apoptosis were study by flow cytometry.

[2] = test system: 17 gastric and 27 colon cancer cell lines; test: dose response in gastric and colon cancer cell line panels; assay type: cell-based; conditions: Homo sapiens; 14 of the 44 gastric and colon cancer cell lines tested; read-out: anti-proliferative activity (concentration)
Protocol: Methods: Panels of 17 gastric and 27 colon cancer cell lines were exposed in vitro to palbociclib over various concentrations to generate dose response curves. Analysis of variance (ANOVA) was used to identify differentially expressed genes between sensitive and resistant cell lines. Genes identified by ANOVA and effects of palbociclib on pRB were analyzed via western blot.

Row | SMILES | clinical benefit (colon cancer) | IC50 ([1]; 48 melanoma cell lines, read-out: IC50, lower end of range across melanoma cell lines) [nM] | IC50 ([1]; 48 melanoma cell lines, read-out: IC50, upper end of range across melanoma cell lines) [nM] | IC50 ([1]; subset (14/48) of melanoma cell lines, clinically achievable concentrations, read-out: IC50 of cell lines classified as sensitive) [nM] | IC50 [2] [nM]
1 | CCN1CCN(Cc2ccc(Nc3ncc(F)c(-c4cc(F)c5nc(C)n(C(C)C)c5c4)n3)nc2)CC1 [LY2835219] | beneficial in colon cancer | – | – | – | –
2 | CC(=O)c1c(C)c2cnc(Nc3ccc(N4CCNCC4)cn3)nc2n(C2CCCC2)c1=O [palbociclib] | – | 28 | > 1000 | < 150 | < 150
